Measurements as given in patent US20030166202A1, “P450 Monooxygenases of the cyp79 family” (priority 2000, published 2003).

Experiments:
[1] = target: CYP79F1 (Arabidopsis thaliana, UniProt Q949U1, M2A); settings: E. coli C43(DE3) spheroplasts, GC-MS or TLC
Protocol: In a typical enzyme assay, 5 μl spheroplasts and 4 μl NADPH:cytochrome P450 reductase (equivalent to 0.04 units defined as 1 μmol cytochrome c/min) are incubated with substrate in buffer containing 30 mM KPi, pH 7.5, 3 mM NADPH, 3 mM reduced glutathione, 0.042% Tween 80, 1 mg ml^−1 L-α-dilauroylphosphatidylcholine in a total volume of 30 μl. Reaction mixtures containing spheroplasts of E. coli C43(DE3) transformed with empty vector are used as controls in all assays. 3.3 μM L-[U-^14C]phenylalanine (453 mCi/mmol; Pharmacia), 3.7 μM L-[U-^14C]tyrosine (449 mCi/mmol; Pharmacia), 0.1 mM L-[methyl-^14C]methionine (56 mCi/mmol; Pharmacia), and 24 μM L-[side chain-3-^14C]tryptophan (56.5 mCi/mmol; NEN) are tested as potential substrates. After incubation at 28° C. for 1 hour, half of the reaction mixture is analyzed by TLC on Silica Gel 60 F254 sheets (Merck) using toluene/ethyl acetate 5:1 (v/v) as eluent. Radiolabelled bands are visualized and quantified using a STORM 840 phosphoimager (Pharmacia). For GC-MS analysis, 450 μl reaction mixture containing 3.3 mM L-methionine (Sigma), 3.3 mM DL-dihomomethionine or 3.3 mM DL-trihomomethionine, respectively, are incubated for 4 hours at 25° C. and extracted with a total volume of 600 μl CHCl3. The organic phase is collected, evaporated, and the residue is dissolved in 15 μl CHCl3 and analyzed by GC-MS. […] An SGE column (BPX5, 25 m×0.25 mm, 0.25 μm film thickness) is used (heat pressure 100 kPa, splitless injection). The oven temperature program is as follows: 80° C. for 3 minutes, 80° C. to 180° C. at 5° C. min^−1, 180° C. to 300° C. at 20° C. min^−1, and 300° C. for 10 min. The ion source is run in EI mode (70 eV) at 200° C. […] DL-dihomomethionine, DL-trihomomethionine, 5-methylthiopentanaldoxime and 6-methylthiohexanaldoxime are synthesized as described (Dawson et al, J. Biol. Chem. 268: 27154-27159, 1993) and authenticated by NMR spectroscopy.

[2] = target: T1, CYP79E1 (Manihot esculenta, UniProt Q9M7B8); assay: Substrate specificity / reconstitution of CYP79E1; format: biochemical, Triglochin maritima
T1 construct: A full length construct (CYP79E1na) encoding native CYP79E1 with silent mutations introduced at codons 3 and 5; made in house; host or cells: E. coli JM109 (vector pSP19g10L)
Protocol: Investigations into the substrate specificity of CYP79D1, CYP79D2, CYP79E1, CYP79E2, CYP79A2, CYP79B2, CYP79B5 and CYP79F1 are carried out in E. coli spheroplasts reconstituted with sorghum NADPH-cytochrome P450 oxidoreductase in the presence of high amounts of lipids. L-α-dioleyl phosphatidyl choline and L-α-dilauroyl phosphatidyl choline are preferred lipids for the reconstitution. […] Neither L-methionine, L-tryptophane nor L-tyrosine are metabolized by CYP79A2. Neither phenylalanine nor tyrosine are metabolized by CYP79B2. Neither L-tryptophane, L-phenylalanine nor L-tyrosine are metabolized by CYP79F1. D-Amino acids are not converted into oximes by CYP79D1, CYP79D2, CYP79E1 and CYP79E2. Depending on the nature of the substrate, substrate specificity may also be determined using intact P. pastoris cells or intact E. coli cells.
Expression levels of the different constructs are determined by CO difference spectroscopy and quantified using an extinction coefficient ε450-490 of 91 mM^−1cm^−1 (Omura et al, J. Biol. Chem. 239: 2370-2378, 1964). Spectra are made from 100 μl or 500 μl whole E. coli cells or using the rich phases from Triton X-114 phase partitioning solubilized in 50 mM KH2PO4/K2HPO4 pH 7.5, 2 mM EDTA, 20% glycerol, 0.2% Triton X-100 (total volume: 1 ml). […] In vitro activities are measured in reconstitution experiments using the rich phase from phase partitioning. […]

T1 sequence (Q9M7B8 whole entry): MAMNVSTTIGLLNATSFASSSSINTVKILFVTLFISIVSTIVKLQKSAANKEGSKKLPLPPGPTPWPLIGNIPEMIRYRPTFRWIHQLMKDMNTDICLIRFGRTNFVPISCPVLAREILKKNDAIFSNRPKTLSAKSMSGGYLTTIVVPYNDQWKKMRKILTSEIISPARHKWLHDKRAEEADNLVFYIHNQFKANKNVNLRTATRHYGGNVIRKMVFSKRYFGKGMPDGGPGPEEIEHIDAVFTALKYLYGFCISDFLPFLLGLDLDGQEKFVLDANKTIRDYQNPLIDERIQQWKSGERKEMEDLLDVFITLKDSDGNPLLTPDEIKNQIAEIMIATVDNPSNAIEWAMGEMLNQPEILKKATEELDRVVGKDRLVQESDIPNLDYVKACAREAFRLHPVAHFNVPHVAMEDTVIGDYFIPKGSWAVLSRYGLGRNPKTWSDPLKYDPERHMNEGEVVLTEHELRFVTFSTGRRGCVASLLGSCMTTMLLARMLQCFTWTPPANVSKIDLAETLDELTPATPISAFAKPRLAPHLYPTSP
CYP79F1, sequence (Q949U1 whole entry M2A): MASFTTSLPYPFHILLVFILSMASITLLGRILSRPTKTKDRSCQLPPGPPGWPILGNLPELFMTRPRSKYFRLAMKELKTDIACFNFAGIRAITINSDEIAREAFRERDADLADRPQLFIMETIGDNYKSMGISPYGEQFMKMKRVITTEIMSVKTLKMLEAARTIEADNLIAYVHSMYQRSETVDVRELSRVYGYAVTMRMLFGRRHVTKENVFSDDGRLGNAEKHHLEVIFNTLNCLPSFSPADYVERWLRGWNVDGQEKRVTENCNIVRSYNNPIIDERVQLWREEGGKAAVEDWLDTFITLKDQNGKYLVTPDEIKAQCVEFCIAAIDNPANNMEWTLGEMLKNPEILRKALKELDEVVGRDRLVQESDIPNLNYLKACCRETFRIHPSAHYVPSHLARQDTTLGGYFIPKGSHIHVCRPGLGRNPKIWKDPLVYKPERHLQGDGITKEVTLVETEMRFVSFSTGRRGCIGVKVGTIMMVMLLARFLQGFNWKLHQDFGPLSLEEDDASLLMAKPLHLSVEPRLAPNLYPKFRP

In the case of `N[C@@H](Cc1ccc(O)cc1)C(=O)O` [L-tyrosine], the “formation of the corresponding aldoxime by CYP79F1” value [1] is reported as “did not result in the formation of detectable amounts of the corresponding aldoximes”, the “conversion to the corresponding oxime by CYP79E1” value [2] is reported as “found to convert” and the “product accumulation in reconstitution of CYP79E1 with CYP71E1” value ([2]; with NADPH, NADPH-cytochrome P450 oxidoreductase, CYP71E1) is reported as “considerable amounts of p-hydroxyphenylacetonitrile and p-hydroxybenzaidehyde accumulate”.
